Square brackets hold non-standard residues; d marks the D form. Peptide text beside a SMILES is read from it. * marks the point of attachment. Sta = CC(C)C[C@H](N)[C@@H](O)CC(=O)O; Isovaleryl = CC(C)CC(=O)*
How the values were obtained:
human renin = target: T1, human renin (Homo sapiens, UniProt P00797); test: in vitro human renin inhibition assay (angiotensin I determined by radioimmunoassay); format: biochemical; settings: pH 7.4, 37° C., two hours; for inhibition at 1 µM: 10^-6 M
T1 construct: purchased National Institute for Biological Standards, London
T1 sequence (P00797 67-406): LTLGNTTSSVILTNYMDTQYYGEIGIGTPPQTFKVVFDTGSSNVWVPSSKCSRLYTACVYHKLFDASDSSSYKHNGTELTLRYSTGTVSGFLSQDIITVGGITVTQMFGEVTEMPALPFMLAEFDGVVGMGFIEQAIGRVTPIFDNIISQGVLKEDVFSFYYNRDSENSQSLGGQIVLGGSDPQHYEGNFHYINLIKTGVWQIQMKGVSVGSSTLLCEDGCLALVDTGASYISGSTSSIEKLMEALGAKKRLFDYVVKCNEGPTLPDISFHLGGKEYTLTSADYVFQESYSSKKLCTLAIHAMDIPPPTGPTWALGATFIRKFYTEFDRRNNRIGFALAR
Method: Compounds of Formula I were evaluated as inhibitors of human renin in an in vitro assay. This human renin inhibition test has been previously described in detail [Papaioannou et al., Clinical and Experimental Hypertension, A7(9), 1243-1257 (1985)]. Human renin was obtained from the National Institute for Biologivcal Standards, London. An incubation mixture was prepared containing in a total volume of 0.25 mL 100 mM Tris-acetate buffer at pH 7.4, 25×10^-6 Goldblatt units of renin, 0.05 mL of plasma from human volunteers taking oral contraceptives,6.0 mM sodium EDTA, 2.4 mM phenylmethyl sulfonyl fluoride, 1.5 mM 8-hydroxyquinoline, 0.4 mg/mL BSA, and 0.024 mg/mL neomycin sulfate. This mixture was incubated for two hours at 37° C. in the presence or absence of renin inhibitors. The produced angiotensin I was determined by radioimmunoassay (New England Nuclear kit). Test compounds to be assayed were dissolved in DMSO and diluted with 100 mM Tris-acetate buffer at pH 7.4 containing 0.5% BSA to the appropriate Concentration. The final concentration of organic solvent in the reaction mixture was less than 1%. Control incubations at 37° C. were used to correct for effects of organic solvent on renin activity.

pepsin = settings: cited from earlier work
cathepsin D = settings: cited from earlier work
hog renin = settings: after the injection of hog renin into nephrectomized rats; cited from earlier work
renin = settings: cited from earlier work

Structure (SMILES) | IC50 (human renin) [nM] | further results
CC(C)C[C@H](O)[C@H](O)[C@H](CC1CCCCC1)NC(=O)[C@H](C)CNC(=O)CCCc1ccccc1 (relative stereo) [Example 6, N-[3-[[1S,1R*-(cyclohexylmethyl)-2S*,3R*-dihydroxy-5-methylhexyl]amino]-2S*-methyl-3-oxopropyl]benzenebutanamide] | 125 | –
CC(C)C[C@H](O)[C@H](O)[C@H](CC1CCCCC1)NC(=O)[C@H](C)CNC(=O)c1cc2ccccc2[nH]1 (relative stereo) [Example 7, N-[3-[[1S,1R*-(cyclohexylmethyl)-2S*,3R*-dihydroxy-5-methylhexyl]amino]-2S*-methyl-3-oxopropyl]-1H-indole-2-carboxamide] | 26 | –
CC(C)C[C@H](O)[C@H](O)[C@H](CC1CCCCC1)NC(=O)[C@H](C)CN(C)C(=O)CCCc1ccccc1 (relative stereo) [Example 10, N-[3-[[1S,1R*-(cyclohexylmethyl)-2S*,3R*-dihydroxy-5-methylhexyl]amino-]-2S*-methyl-3-oxopropyl]-N-methyl-benzenebutanamide] | 115 | –
CC(C)C[C@H](O)[C@H](O)[C@H](CC1CCCCC1)NC(=O)[C@H](C)CNC(=O)CCCC1CCCCC1 (relative stereo) [Example 11, N-[3-[[1S,1R*-(cyclohexylmethyl)-2S*,3R*-dihydroxy-5-methylhexyl]amino]-2S*-methyl-3-oxopropyl]cyclohexane-butanamide] | 180 | –
CC(C)C[C@H](O)[C@H](O)[C@H](CC1CCCCC1)NC(=O)[C@H](C)CN(C)C(=O)CCCC1CCCCC1 (relative stereo) [Example 12, N-[3-[[1S,1R*-(cyclohexylmethyl)-2S*,3R*-dihydroxy-5-methylhexyl]amino]-2S*-methyl-3-oxopropyl]-N-methyl-cyclohexanebutanamide] | – | inhibition at 1 µM (human renin): 23%
COc1ccc(CCC(=O)NC[C@@H](C)C(=O)N[C@@H](CC2CCCCC2)[C@@H](O)[C@@H](O)CC(C)C)cc1 [Example 13, N-[3-[[1S,1R*-(cyclohexylmethyl)-2S*,3R*-dihydroxy-5-methylhexyl]amino]-2S*-methyl-3-oxopropyl]-4-methoxybenzenepropanamide] | – | inhibition at 0.5 µM (human renin; 5 × 10^-7 M): 30%
CCn1cc(C(=O)NC[C@@H](C)C(=O)N[C@@H](CC2CCCCC2)[C@@H](O)[C@@H](O)CC(C)C)c(=O)c2ccc(C)nc21 [Example 16, N-[3-[[1S,1R*-(cyclohexylmethyl)-2S*,3R*-dihydroxy-5-methylhexylamino]amino]-2S*-methyl-3-oxopropyl-nalidixylamide] | 450 | –
CC(C)C[C@H](O)[C@H](O)[C@H](CC1CCCCC1)NC(=O)[C@H](C)CNC(=O)c1c[nH]c2ccccc12 [Example 20, N-[3-[[1S,1R*-(cyclohexylmethyl)-2S*,3R*-dihydroxy-5-methylhexyl]amino]-2S*-methyl-3-oxopropyl]-1H-indole3-carboxamide] | – | inhibition at 10 µM (human renin; 10^-5 M): 27%
CC(C)C[C@H](O)[C@H](O)[C@H](CC1CCCCC1)NC(=O)[C@H](C)CNC(=O)Cc1c[nH]c2ccccc12 [Example 21, N-[3-[[1S,1R*-(cyclohexylmethyl)-2S*,3R*-dihydroxy-5-methylhexyl]amino]-2S*-methyl-3-oxopropyl]-1H-indole3-acetamide] | – | inhibition at 1 µM (human renin): 30%
CC(C)C[C@H](O)[C@H](O)[C@H](CC1CCCCC1)NC(=O)[C@H](C)CNC(=O)CCc1c[nH]c2ccccc12 [Example 22, N-[3-[[1S,1R*-(cyclohexylmethyl)-2S*,3R*-dihydroxy-5-methylhexyl]amino]-2S*-methyl-3-oxopropyl]-1H-indole3-propanamide] | 30 | –
CC(C)C[C@H](O)[C@H](O)[C@H](CC1CCCCC1)NC(=O)[C@H](C)CNC(=O)c1cc2cccc(Cl)c2o1 [Example 23] | 1800 | –
COc1cccc2cc(C(=O)NC[C@@H](C)C(=O)N[C@@H](CC3CCCCC3)[C@@H](O)[C@@H](O)CC(C)C)oc12 [Example 24, N-[3-[[1S,1R*-(cyclohexylmethyl)-2S*,3R*-dihydroxy-5-methylhexyl]amino]-2S*-methyl-3-oxopropyl]-7-methoxy-benzofuran-2-carboxamide] | 3000 | –
CC(C)C[C@H](O)[C@H](O)[C@H](CC1CCCCC1)NC(=O)[C@H](C)CNC(=O)c1coc2ccccc2c1=O [Example 25, N-[3-[[1S,1R*-(cyclohexylmethyl)-2S*,3R*-dihydroxy-5-methyhexyl]amino]-2S*- methyl-3-oxopropyl]-4-oxo-4H-1-benzopyran-3-carboxamide] | 1100 | –
CC(C)C[C@H](O)[C@H](O)[C@H](CC1CCCCC1)NC(=O)[C@H](C)CNC(=O)c1cc(=O)c2ccccc2o1 [Example 26, N-[3-[[1S,1R*-(cyclohexylmethyl)-2S*,3R*-dihydroxy-5-methylhexyl]amino]-2S*-methyl-3-oxopropyl]-4-oxo-4H-1-benzopyran-2-carboxamide] | 520 | –
CC(C)CC(=O)N[C@H](C(=O)N[C@H](C(=O)N[C@@H](CC(C)C)[C@@H](O)CC(=O)N[C@@H](C)C(=O)N[C@@H](CC(C)C)[C@@H](O)CC(=O)O)C(C)C)C(C)C [pepstatin] (Isovaleryl-VV[Sta]A[Sta]-OH) | – | inhibitor of aspartyl proteases: pepsin (pepsin): inhibitor; inhibitor of aspartyl proteases: cathepsin D (cathepsin D): inhibitor; blood pressure reduction in vivo (hog renin): reduce blood pressure; inhibitor of aspartyl proteases: renin (renin): inhibitor

— patent US5147888A, “N-terminal indolyy indolylalkylaminodiol β-amino acid derivatives” (G. D. Searle & Co., priority 1991, dated 1992)
